Measurements as given in PubChem BioAssay AID1918996 (Molecular Pharmacology Branch, DTP, NCI, 2023).
pIC50: −log10 of the molar value. “And” between values parts separate entries of the source, which are not always exact repeats. Identical values can stand only once.

Tested on: 349418-098-R-PDC complex spheroid growth
Assay: Anticancer human tumor 349418-098-R-PDC patient-derived lung adenocarcinoma cell line growth inhibition [AhR]
Conditions: for viability, T/C: stronger effect = lower value
From the text: Multicellular complex tumor spheroid response to aryl hydrocarbon receptor antagonists in combination with a variety of drugs and investigational agents in selected tumor cell lines
The current study was undertaken to assess response to aryl hydrocarbon receptor antagonists in combination with standard-of-care drugs and investigational agents in solid tumor complex spheroid models. Complex spheroids include a stromal component modeled by human endothelial cells (HUVEC) and fibroblasts modeled by human mesenchymal stem cells (MSCs). The concentration ranges selected for each drug and investigational agent were based upon clinically achievable concentrations if the clinical Cmax of the agent was known.
Compounds. The drugs and investigational agents: BAY 2416964 (NSC825713), GNF351 (NSC835774), CH-223191 (NSC835775), CPI-455 (NSC825282), aza-TdCyd (NSC777586), decitabine (NSC127716), belinostat (NSC758774), entinostat (NSC756642), pevonedistat (NSC761192), tazemetostat (NSC777109), talazoparib (NSC765396), olaparib (NSC753686), selinexor (NSC780203), nedisertib (M3814, NSC802822), bortezomib (NSC756655), venetoclax (NSC766270), doxorubicin (NSC123127), elimusertib (BAY189344, NSC800525), ceralasertib (AZD6738, NSC777638), TAK-243 (NSC785004), alisertib (NSC759677), etoposide (NSC141540), topotecan (NSC609699), eribulin (NSC707389), gemcitabine (NSC613327), carboplatin (NSC241240), cisplatin (NSC119875), and SN-38 (NSC673596) were obtained from the National Cancer Institute (NCI) Developmental Therapeutics Program Chemical Repository (32). The FDA-approved anticancer drug set is available from the Developmental Therapeutics Program at https://dtp.cancer.gov/organization/dscb/obtaining/available plates.htm. […] The stock solutions were prepared in dimethyl sulfoxide (DMSO, Sigma-Aldrich, St. Louis, MO, cat. D2650), except for the platinum compounds which were prepared in saline (Quality Biological, Gaithersburg, MD, cat. 114-055-101), at 800-fold the tested concentration and stored at -70 degrees C prior to their use. All drugs and investigational agents were tested over a range starting from a high concentration at or near the clinical Cmax and decreasing in half-log increments. If the clinical Cmax for an agent had not been determined, the highest concentration tested was 10 microM (Table 1).
Cell Culture. All cells were maintained in an incubator at 37 degrees C and 5% CO2 with 95% humidity. The PDC lines were cultured according to standard operating procedures established by the NCI PDMR (https://pdmr.cancer.gov). Briefly, all PDCs were thawed and cultured in Matrigel-coated flasks prepared with a working solution of 1X Ham's F-12 nutrient mix, without supplementation (Invitrogen, Waltham, MA, cat. 11765054), 100 U/mL penicillin-streptomycin (Invitrogen, cat. 15140122), and 2.5% Matrigel (Corning Inc., Corning, NY, cat. 354248) for the first three passages. All PDCs were cultured in complete DMEM/F-12 media containing advanced DMEM/F-12 (Invitrogen, cat. 12634028), 4.9% defined fetal bovine serum, heat inactivated (HyClone Laboratories Inc., Logan, UT, cat. SH30070.03HI), 389 ng/mL hydrocortisone (Sigma-Aldrich, cat. H4001), 9.7 ng/mL human EGF recombinant protein (Invitrogen, cat. PHG0313), 23.4 microg/mL adenine (Sigma-Aldrich, cat. A2786), 97.3 U/mL penicillin-streptomycin (Invitrogen, cat. 15140122), 1.9 mM L-glutamine (Invitrogen, cat. 25030081), and 9.7 microM Y-27632 dihydrochloride (Tocris Bioscience, Bristol, United Kingdom, cat. 1254). The PDCs were cultured in complete DMEM/F12 media without 10 microM Y-27632 dihydrochloride for at least two passages prior to the screen. The established cell lines NCI-H1341 and […] were cultured in DMEM/F-12, HEPES (Invitrogen, cat. 11330032), 5% defined fetal bovine serum (HyClone Laboratories Inc., cat. SH30070.03), ITS premix universal culture supplement [insulin (5 microg/mL), transferrin (5 microg/mL), and selenious acid (5 ng/mL)] […]

[1] = curve of first compound, second compound 0.1 µM
[2] = curve of first compound, second compound 0.316 µM
[3] = curve of first compound, second compound 1 µM
[4] = curve of first compound, second compound 3.16 µM
[5] = curve of first compound, second compound 10 µM
[6] = second compound 0.1 µM, first compound 0.000949 µM
[7] = second compound 0.1 µM, first compound 0.003 µM
[8] = second compound 0.1 µM, first compound 0.00949 µM
[9] = second compound 0.1 µM, first compound 0.03 µM
[10] = second compound 0.1 µM, first compound 0.0949 µM
[11] = second compound 0.1 µM, first compound 0.3 µM
[12] = second compound 0.316 µM, first compound 0.000949 µM
[13] = second compound 0.316 µM, first compound 0.003 µM
[14] = second compound 0.316 µM, first compound 0.00949 µM
[15] = second compound 0.316 µM, first compound 0.03 µM
[16] = second compound 0.316 µM, first compound 0.0949 µM
[17] = second compound 0.316 µM, first compound 0.3 µM
[18] = second compound 1 µM, first compound 0.000949 µM
[19] = second compound 1 µM, first compound 0.003 µM
[20] = second compound 1 µM, first compound 0.00949 µM
[21] = second compound 1 µM, first compound 0.03 µM
[22] = second compound 1 µM, first compound 0.0949 µM
[23] = second compound 1 µM, first compound 0.3 µM
[24] = second compound 3.16 µM, first compound 0.000949 µM
[25] = second compound 3.16 µM, first compound 0.003 µM
[26] = second compound 3.16 µM, first compound 0.00949 µM
[27] = second compound 3.16 µM, first compound 0.03 µM
[28] = second compound 3.16 µM, first compound 0.0949 µM
[29] = second compound 3.16 µM, first compound 0.3 µM
[30] = second compound 10 µM, first compound 0.000949 µM
[31] = second compound 10 µM, first compound 0.003 µM
[32] = second compound 10 µM, first compound 0.00949 µM
[33] = second compound 10 µM, first compound 0.03 µM
[34] = second compound 10 µM, first compound 0.0949 µM
[35] = second compound 10 µM, first compound 0.3 µM
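Note: spheroids exposed to agents for seven days before luminescence viability read.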
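Throughout, for viability, T/C: spheroids also contain HUVEC endothelial cells and human MSC stroma.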

In the case of `Cn1ncnc1C1c2n[nH]c(=O)c3cc(F)cc(c23)NC1c1ccc(F)cc1` (configuration not stated) + Cc1ccccc1N=Nc1ccc(NC(=O)c2ccnn2C)c(C)c1, the pIC50 [1] was under 7.00, the pIC50 [2] was under 7.00 and the pIC50 [3] was under 7.00. The pIC50 [4] was under 7.00, the pIC50 [5] was under 7.00 and the viability, T/C (second compound 0.1 µM, first compound 0.000316 µM) was 106%. It also gave a viability, T/C (second compound 0.1 µM, first compound 0.001 µM) of 93.8%, a viability, T/C (second compound 0.1 µM, first compound 0.00316 µM) of 118% and a viability, T/C (second compound 0.1 µM, first compound 0.01 µM) of 56.1%. The viability, T/C (second compound 0.1 µM, first compound 0.0316 µM) was 99.1%, the viability, T/C (second compound 0.1 µM, first compound 0.1 µM) was 67.4% and the viability, T/C (second compound 0.316 µM, first compound 0.000316 µM) was 110%. For the same molecule, the viability, T/C (second compound 0.316 µM, first compound 0.001 µM) was 87.2%, the viability, T/C (second compound 0.316 µM, first compound 0.00316 µM) was 113% and the viability, T/C (second compound 0.316 µM, first compound 0.01 µM) was 74.1%. It also gave a viability, T/C (second compound 0.316 µM, first compound 0.0316 µM) of 115%, a viability, T/C (second compound 0.316 µM, first compound 0.1 µM) of 71.6% and a viability, T/C (second compound 1 µM, first compound 0.000316 µM) of 82.9%. For the same molecule, the viability, T/C (second compound 1 µM, first compound 0.001 µM) was 102%, the viability, T/C (second compound 1 µM, first compound 0.00316 µM) was 106% and the viability, T/C (second compound 1 µM, first compound 0.01 µM) was 89.9%. It also gave a viability, T/C (second compound 1 µM, first compound 0.0316 µM) of 94.2%, a viability, T/C (second compound 1 µM, first compound 0.1 µM) of 80.6% and a viability, T/C (second compound 3.16 µM, first compound 0.000316 µM) of 72.1%. The viability, T/C (second compound 3.16 µM, first compound 0.001 µM) was 90.2%, the viability, T/C (second compound 3.16 µM, first compound 0.00316 µM) was 98.8% and the viability, T/C (second compound 3.16 µM, first compound 0.01 µM) was 79%. The viability, T/C (second compound 3.16 µM, first compound 0.0316 µM) was 71.4%, the viability, T/C (second compound 3.16 µM, first compound 0.1 µM) was 63.6% and the viability, T/C (second compound 10 µM, first compound 0.000316 µM) was 61.5%. It also gave a viability, T/C (second compound 10 µM, first compound 0.001 µM) of 71.8%, a viability, T/C (second compound 10 µM, first compound 0.00316 µM) of 76.2% and a viability, T/C (second compound 10 µM, first compound 0.01 µM) of 51.2%. It also gave a viability, T/C (second compound 10 µM, first compound 0.0316 µM) of 70.8% and a viability, T/C (second compound 10 µM, first compound 0.1 µM) of 55.6%.

`CCc1c2c(nc3ccc(O)cc13)-c1cc3c(c(=O)n1C2)COC(=O)[C@]3(O)CC` + CC(CO)NC(=O)c1cc(-c2ccc(Cl)cc2)nn(-c2cnn(C)c2)c1=O showed a pIC50 [1] of over 9.02, a pIC50 [2] of over 9.02 and a pIC50 [3] of over 9.02. The pIC50 [4] was over 9.02, the pIC50 [5] was over 9.02 and the viability, T/C [6] was 42.1%. The viability, T/C [7] was 37.1%, the viability, T/C [8] was 18.3% and the viability, T/C [9] was 8.94%. For the same molecule, the viability, T/C [10] was 5.8%, the viability, T/C [11] was 3.72% and the viability, T/C [12] was 34.2%. The viability, T/C [13] was 30.5%, the viability, T/C [14] was 13.1% and the viability, T/C [15] was 7.93%. It also gave a viability, T/C [16] of 5.5%, a viability, T/C [17] of 4.2% and a viability, T/C [18] of 33.9%. For the same molecule, the viability, T/C [19] was 21%, the viability, T/C [20] was 14.2% and the viability, T/C [21] was 9.54%. The viability, T/C [22] was 8.88%, the viability, T/C [23] was 4.3% and the viability, T/C [24] was 22.4%. It also gave a viability, T/C [25] of 18.9%, a viability, T/C [26] of 13% and a viability, T/C [27] of 7.97%. The viability, T/C [28] was 6.24%, the viability, T/C [29] was 4.5% and the viability, T/C [30] was 20.1%. It also gave a viability, T/C [31] of 17.4%, a viability, T/C [32] of 12.2% and a viability, T/C [33] of 8.79%. The viability, T/C [34] was 6.32% and the viability, T/C [35] was 5.7%.

`CC(C)CC(NC(=O)C(Cc1ccccc1)NC(=O)c1cnccn1)B(O)O` (configuration not stated) + Cc1ccccc1N=Nc1ccc(NC(=O)c2ccnn2C)c(C)c1 showed a pIC50 [1] of over 9.02, a pIC50 [2] of over 9.02 and a pIC50 [3] of 8.93. For the same molecule, the pIC50 [4] was 8.97, the pIC50 [5] was over 9.02 and the viability, T/C [6] was 46.8%. The viability, T/C [7] was 11.1%, the viability, T/C [8] was 3.13% and the viability, T/C [9] was 1.55%. It also gave a viability, T/C [10] of 1.77%, a viability, T/C [11] of 0.98% and a viability, T/C [12] of 48.2%. The viability, T/C [13] was 11.7%, the viability, T/C [14] was 2.73% and the viability, T/C [15] was 1.61%. It also gave a viability, T/C [16] of 1.03%, a viability, T/C [17] of 1.37% and a viability, T/C [18] of 58.5%. For the same molecule, the viability, T/C [19] was 13.4%, the viability, T/C [20] was 2.69% and the viability, T/C [21] was 1.87%. The viability, T/C [22] was 1.39%, the viability, T/C [23] was 1.15% and the viability, T/C [24] was 53.7%. For the same molecule, the viability, T/C [25] was 14%, the viability, T/C [26] was 2.77% and the viability, T/C [27] was 1.76%. The viability, T/C [28] was 1.72%, the viability, T/C [29] was 1.32% and the viability, T/C [30] was 41.6%. The viability, T/C [31] was 14.5%, the viability, T/C [32] was 2.75% and the viability, T/C [33] was 1.8%. For the same molecule, the viability, T/C [34] was 1.43% and the viability, T/C [35] was 1.45%.

With `Nc1ccccc1NC(=O)c1ccc(CNC(=O)OCc2cccnc2)cc1` the viability, T/C (compound 0.0316 µM) was 86.3% and 118% and 87.5%, the viability, T/C (compound 0.1 µM) was 77.6% and 98.4% and 82.2% and the viability, T/C (compound 0.316 µM) was 65.7% and 89.3% and 84.6%. The viability, T/C (compound 1 µM) was 48.9% and 69.2% and 44.6%, the viability, T/C (compound 3.16 µM) was 23.7% and 17.8% and 23.1% and the viability, T/C (compound 10 µM) was 5.19% and 7.03% and 7.04%. The pIC50 (curve of compound) was 6.07 and 5.84 and 6.03.
